According to patent publication US9920010B2, “CXCR7 receptor modulators” (IDORSIA PHARMACEUTICALS LTD, priority 2013, dated 2018):
pEC50: −log10 of the molar value.

Target: T1, CXCR7 (Homo sapiens, UniProt P25106)
T1 construct: host or cells: CHO-K1 (PathHunter CHO-K1 CXCR7 b-arrestin cell line, stably transfected)
Assay: PathHunter CHO-K1 CXCR7 b-arrestin recruitment assay (CXCR7 agonistic activity)
Type: cell-based
Details: PathHunter CHO-K1 CXCR7 b-arrestin cell line
Method: The CXCl12 receptor and CXCR7 agonistic activities of the compounds of formula (I) are determined in accordance with the following experimental method.
The assay is using the PathHunter™ CHO-K1 CXCR7 b-arrestin cell line from DiscoverX. The system is based on the Enzyme Fragment Complementation Technology. Two complementing fragments of the b-galactosidase enzyme are expressed within stably transfected cells. The larger portion of b-gal, termed EA for Enzyme Acceptor, is fused to the C-terminus of b-arrestin 2. The smaller fragment, termed ProLink™ tag, is fused to CXCR7 at the C-terminus. Upon activation, b-arrestin is recruited which forces the interaction of ProLink and EA, allowing complementation of the two fragments of b-gal and the formation of a functional enzyme which is capable of hydrolysing the substrate and generating a chemiluminescent signal.
CHO-K1 CXCR7 b-arrestin cells are detached from culture dishes with a cell dissociation buffer (Invitrogen, #13151-014) and collected in growing medium (F12 HAMS 90% (v/v)/FCS 10% (v/v), Penicillin/streptomycin 1% (v/v)). 5000 cells per well (in 20 μl) are seeded in a 384 well plate (white-walled, clear bottom; BD Falcon #353274). The plate is incubated at 37° C./5% CO2 for 24 hours. Medium is then replaced by 20 μl OPTIMEM (Invitrogen #31985) for 3 to 4 hours. Test compounds are dissolved at 10 mM in DMSO and serially diluted in DMSO to 200× of the final concentration for dose response curves. Compounds are then diluted 1:33.3 in HBSS1×. 5 μl/well of HBSS1×/20 mM HEPES/0.2% BSA are added to the assay plate followed by addition of 5 μl/well of diluted compounds. CXCL12 (Peprotech #300-28A) may be used as a reference agonist. The plate is incubated for 90 minutes at 37° C. 12 μl of detection reagent (Path Hunter Detection Kit, DiscoveRx, #93-0001) is transferred to the assay plate and to the plate is incubated for 1 hour at room temperature. Luminescent signal is read in a microplate reader (FLUOstar Optima, bmg). The calculated EC50 values may fluctuate depending on the daily cellular assay performance. Fluctuations of this kind are known to those skilled in the art. Average EC50 values from several measurements are given as geometric mean values.

T1 sequence (P25106 whole entry): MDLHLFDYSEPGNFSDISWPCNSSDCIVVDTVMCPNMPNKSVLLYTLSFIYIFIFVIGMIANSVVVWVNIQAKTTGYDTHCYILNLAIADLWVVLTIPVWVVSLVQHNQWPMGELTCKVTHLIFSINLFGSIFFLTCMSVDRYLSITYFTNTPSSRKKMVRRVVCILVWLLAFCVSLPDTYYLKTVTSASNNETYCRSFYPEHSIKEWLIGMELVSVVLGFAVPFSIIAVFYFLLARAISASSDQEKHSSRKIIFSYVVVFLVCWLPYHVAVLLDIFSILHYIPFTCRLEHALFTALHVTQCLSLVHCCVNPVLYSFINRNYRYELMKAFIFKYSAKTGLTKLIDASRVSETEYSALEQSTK
T1 sequence (P32121 whole entry partner): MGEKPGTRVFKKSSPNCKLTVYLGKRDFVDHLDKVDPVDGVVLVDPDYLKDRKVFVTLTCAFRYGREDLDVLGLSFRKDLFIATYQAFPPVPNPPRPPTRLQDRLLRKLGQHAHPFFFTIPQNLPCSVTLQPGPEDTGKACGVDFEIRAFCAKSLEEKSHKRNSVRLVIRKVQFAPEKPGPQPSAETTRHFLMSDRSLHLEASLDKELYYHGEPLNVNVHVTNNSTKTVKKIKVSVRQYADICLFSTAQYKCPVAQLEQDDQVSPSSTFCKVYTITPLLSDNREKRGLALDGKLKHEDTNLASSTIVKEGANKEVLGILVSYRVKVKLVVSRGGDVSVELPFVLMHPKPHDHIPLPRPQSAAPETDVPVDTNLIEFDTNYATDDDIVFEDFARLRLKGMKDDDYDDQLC

Row | Compound | pEC50
1 | CCN1CCc2cccc(NCC(=O)N(CCN(C)C)Cc3cccc(C(F)(F)F)n3)c2C1 [compound 532, N-(2-Dimethylamino-ethyl)-2-(2-ethyl-1,2,3,4-tetrahydro-isoquinolin-8-ylamino)-N-(6-trifluoromethyl-pyridin-2-ylmethyl)-acetamide] | 7.52
2 | CN(C)CCN(Cc1ccccc1)C(=O)/C=C/c1cccc2c1CCN(C(=O)OC(C)(C)C)C2 [Example 93, 5-{(E)-2-[Benzyl-(2-dimethylamino-ethyl)-carbamoyl]-vinyl}-3,4-dihydro-1H-isoquinoline-2-carboxylic acid tert-butyl ester] | 7.06
3 | O=C(CNc1cccc2c1CCN(CC1CC1)C2)N(CCN1CCC(F)(F)CC1)Cc1ncccc1Cl [Example 249, N-(3-Chloro-pyridin-2-ylmethyl)-2-(2-cyclopropylmethyl-1,2,3,4-tetrahydro-isoquinolin-5-ylamino)-N-[2-(4,4-difluoro-piperidin-1-yl)-ethyl]-acetamide] | 7.92
4 | CN(C)CCN(Cc1ncccc1F)C(=O)CNc1cccc2c1CCN(CC1CC1)C2 [Example 271, 2-(2-Cyclopropylmethyl-1,2,3,4-tetrahydro-isoquinolin-5-ylamino)-N-(2-dimethylamino-ethyl)-N-(3-fluoro-pyridin-2-ylmethyl)-acetamide] | 8.00
5 | O=C(/C=C/c1cccc2c1CCN(CC1CC1)C2)N(CCc1ccc(F)cc1)Cc1ccccc1 [compound 148] | 7.27
6 | CN(C)CCN(Cc1ncccc1Cl)C(=O)/C=C/c1cccc2c1CCN(CC1CC1)C2 [Example 333, (E)-N-(3-Chloro-pyridin-2-ylmethyl)-3-(2-cyclopropylmethyl-1,2,3,4-tetrahydro-isoquinolin-5-yl)-N-(2-dimethylamino-ethyl)-acrylamide] | 8.70
7 | CN(C)CCN(Cc1cccc(OC(F)(F)F)c1)C(=O)CNc1cccc2c1CN(CC1CC1)CC2 [compound 471, 2-(2-Cyclopropylmethyl-1,2,3,4-tetrahydro-isoquinolin-8-ylamino)-N-(2-dimethylamino-ethyl)-N-(3-trifluoromethoxy-benzyl)-acetamide] | 7.68
8 | CN(C)CCN(Cc1ccccc1C(F)(F)F)C(=O)CNc1cccc2c1CCN(C(=O)C(C)(F)F)C2 [Example 362, 2-[2-(2,2-Difluoro-propionyl)-1,2,3,4-tetrahydro-isoquinolin-5-ylamino]-N-(2-dimethylamino-ethyl)-N-(2-trifluoromethyl-benzyl)-acetamide] | 7.68
9 | COC(=O)CN1CCc2c(cccc2NCC(=O)N(CCN(C)C)Cc2ccccc2C(F)(F)F)C1 [Example 360, [5-({[(2-Dimethylamino-ethyl)-(2-trifluoromethyl-benzyl)-carbamoyl]-methyl}-amino)-3,4-dihydro-1H-isoquinolin-2-yl]-acetic acid methyl ester] | 7.52
10 | CC(C)CN1Cc2cccc(NCC(=O)N(CCN(C)C)Cc3ncccc3C(F)(F)F)c2CC1=O [Example 313, N-(2-Dimethylamino-ethyl)-2-(2-isobutyl-3-oxo-1,2,3,4-tetrahydro-isoquinolin-5-ylamino)-N-(3-trifluoromethyl-pyridin-2-ylmethyl)-acetamide] | 7.51
11 | COC(=O)CN1CCc2c(cccc2NCC(=O)N(CCN(C)C)Cc2ncccc2C(F)(F)F)C1 [Example 370, [5-({[(2-Dimethylamino-ethyl)-(3-trifluoromethyl-pyridin-2-ylmethyl)-carbamoyl]-methyl}-amino)-3,4-dihydro-1H-isoquinolin-2-yl]-acetic acid methyl ester] | 7.40
12 | CN(C)CCN(Cc1ccccc1C(F)(F)F)C(=O)CNc1cccc2c1CN(CC(F)(F)F)CC2 [Example 558, N-(2-Dimethylamino-ethyl)-2-[2-(2,2,2-trifluoro-ethyl)-1,2,3,4-tetrahydro-isoquinolin-8-ylamino]-N-(2-trifluoromethyl-benzyl)-acetamide] | 7.23
13 | CCN(Cc1ccccc1Cl)C(=O)/C=C/c1cccc2c1CCN(CC1CC1)C2 [compound 139] | 7.26
14 | CCN1CCc2cccc(NCC(=O)N(CCN(C)C)Cc3cccc(Cl)c3)c2C1 [compound 501] | 7.27
15 | CN(C)CCN(Cc1ccccc1OC(F)(F)F)C(=O)CNc1cccc2c1CCN(CC1CC1)C2 [Example 227, 2-(2-Cyclopropylmethyl-1,2,3,4-tetrahydro-isoquinolin-5-ylamino)-N-(2-dimethylamino-ethyl)-N-(2-trifluoromethoxy-benzyl)-acetamide] | 8.22
16 | CCN1CCc2c(cccc2OCC(=O)N(CCN(C)C)Cc2ccccc2Cl)C1 [compound 171, N-(2-Chloro-benzyl)-N-(2-dimethylamino-ethyl)-2-(2-ethyl-1,2,3,4-tetrahydro-isoquinolin-5-yloxy)-acetamide] | 7.74
17 | CN(C)CCN(Cc1ccccc1C(F)(F)F)C(=O)CNc1cccc2c1CCN(C(=O)C1CC1(F)F)C2 (racemic) [Example 570, rac-2-[2-(2,2-Difluoro-cyclopropanecarbonyl)-1,2,3,4-tetrahydro-isoquinolin-5-ylamino]-N-(2-dimethylamino-ethyl)-N-(2-trifluoromethyl-benzyl)-acetamide] | 7.85
18 | CN(C)CCN(Cc1ccccc1C(F)(F)F)C(=O)CNc1cccc2c1CCN(C(=O)C1(C(F)(F)F)CC1)C2 [Example 571, N-(2-Dimethylamino-ethyl)-N-(2-trifluoromethyl-benzyl)-2-[2-(1-trifluoromethyl-cyclopropanecarbonyl)-1,2,3,4-tetrahydro-isoquinolin-5-ylamino]-acetamide] | 7.07
19 | C=CCN1CCc2cccc(CCC(=O)N(CCN(C)C)Cc3ccccc3C(F)(F)F)c2C1 [compound 468, 3-(2-Allyl-1,2,3,4-tetrahydro-isoquinolin-8-yl)-N-(2-dimethylamino-ethyl)-N-(2-trifluoromethyl-benzyl)-propionamide] | 8.00

Other lines, results leading:

Row | pEC50 | Compound
20 | 8.30 | CN(C)CCN(Cc1cccc(Br)c1)C(=O)CNc1cccc2c1CCN(CC1CC1)C2 [Example 237, N-(3-Bromo-benzyl)-2-(2-cyclopropylmethyl-1,2,3,4-tetrahydro-isoquinolin-5-ylamino)-N-(2-dimethylamino-ethyl)-acetamide]
21 | 8.22 | CNCCN(Cc1ncccc1C(F)(F)F)C(=O)CNc1cccc2c1CCN(C(=O)OC)C2 [compound 419, 5-({[(2-Methylamino-ethyl)-(3-trifluoromethyl-pyridin-2-ylmethyl)-carbamoyl]-methyl}-amino)-3,4-dihydro-1H-isoquinoline-2-carboxylic acid methyl ester]
22 | 7.47 | CC(C)(C)OC(=O)N1CCN(CCN(Cc2ccccc2C(F)(F)F)C(=O)CNc2cccc3c2CCN(CC2CC2)C3)CC1 [Example 216, 4-{2-[[2-(2-Cyclopropylmethyl-1,2,3,4-tetrahydro-isoquinolin-5-ylamino)-acetyl]-(2-trifluoromethyl-benzyl)-amino]-ethyl}-piperazine-1-carboxylic acid tert-butyl ester]
23 | 7.11 | O=C(CNc1cccc2c1CN(CC1CC1)CC2)N(CCN1CCC(F)(F)C1)Cc1ccccc1C(F)(F)F [compound 479]
24 | 8.22 | CCN1CCc2cccc(NCC(=O)N(CCN(C)C)Cc3ncccc3C(F)(F)F)c2C1 [compound 531, N-(2-Dimethylamino-ethyl)-2-(2-ethyl-1,2,3,4-tetrahydro-isoquinolin-8-ylamino)-N-(3-trifluoromethyl-pyridin-2-ylmethyl)-acetamide]
25 | 7.04 | CCOC(=O)CN1CCc2c(cccc2NCC(=O)N(CCN(C)C)Cc2ncccc2C(F)(F)F)C1 [Example 369, [5-({[(2-Dimethylamino-ethyl)-(3-trifluoromethyl-pyridin-2-ylmethyl)-carbamoyl]-methyl}-amino)-3,4-dihydro-1H-isoquinolin-2-yl]-acetic acid ethyl ester]
26 | 7.10 | CN(CCN(Cc1ccccc1C(F)(F)F)C(=O)CNc1cccc2c1CCN(CC1CC1)C2)CC(F)(F)F [Example 278, 2-(2-Cyclopropylmethyl-1,2,3,4-tetrahydro-isoquinolin-5-ylamino)-N-{2-[methyl-(2,2,2-trifluoro-ethyl)-amino]-ethyl}-N-(2-trifluoromethyl-benzyl)-acetamide]
27 | 7.14 | COCCN1CCc2c(CCC(=O)N(CCN(C)C)Cc3ncccc3Cl)cccc2C1 [Example 346, N-(3-Chloro-pyridin-2-ylmethyl)-N-(2-dimethylamino-ethyl)-3-[2-(2-methoxy-ethyl)-1,2,3,4-tetrahydro-isoquinolin-5-yl]-propionamide]
28 | 7.49 | CCC(=O)N1CCc2c(cccc2NCC(=O)N(CCN(C)C)Cc2ccccc2)C1 [compound 111, N-Benzyl-N-(2-dimethylamino-ethyl)-2-(2-propionyl-1,2,3,4-tetrahydro-isoquinolin-5-ylamino)-acetamide]
